How the values were obtained:
[1] = 4 days post administration; free doxorubicin 12.5, micelle 25, unimer 6.3 mg drug/kg body weight; Balb/C mice bearing C26 tumors
Experimental: Animals dosed near the maximum tolerated amount of doxorubicin lose body weight, and weight loss 4 days post doxorubicin administration is used in this experiment as a gross indicator of toxicity. Balb/C mice bearing C26 colon carcinoma tumors were systemically administered PBS, free doxorubicin, micelle doxorubicin-ELP, or unimer doxorubicin-ELP at 0, 12.5, 25, and 6.3 mg drug/kg body weight respectively. […] Error bars indicate the standard deviation (n=5).
The toxicity of doxorubicin-ELP was estimated by body weight loss. Animals that were dosed near the maximum tolerated amount of free doxorubicin, micelle doxorubicin-ELP or unimer doxorubicin-ELP lost body weight, and the weight observed 4 days after the injection of the doxorubicin composition was taken as a gross indicator of toxicity. Balb/C mice bearing C26 colon carcinoma tumors were systemically administered either PBS as a control or free doxorubicin, micelle doxorubicin-ELP, or unimer doxorubicin-ELP at 12.5, 25, and 6.3 mg drug/kg body weight, respectively. […] Error bars indicate the standard deviation (n=5).

[2] = tested on: C26 colon carcinoma tumor; assay: Survival of tumor-bearing mice, C26 colon carcinoma; assay type: in vivo, Balb/C mice; conditions: free doxorubicin 12.5, micelle 25 mg drug/kg body weight, sacrificed after >15% body weight loss, Kaplan Meier analysis
Experimental: Eight days after subcutaneous implantation of C26 colon carcinoma tumor cells, Balb/C mice were randomized and treated. The mice were systemically administered either a PBS control or does of approximately equal toxicity of free doxorubicin at 12.5 mg drug/kg body weight or 25 mg drug/kg body weight micelle doxorubicin-ELP. Mice were sacrificed after losing >15% of their body weight due to tumor burden. The treatment groups were blinded during measurement.
The data shown in FIG. 13 were determined as follows: Eight days after subcutaneous implantation of C26 colon carcinoma tumor cells, Balb/C mice were randomized and treated. […] The mice were sacrificed after losing >15% of their body weight due to tumor burden. The treatment groups were blinded during measurement.

COc1cccc2c1C(=O)c1c(O)c3c(c(O)c1C2=O)C[C@@](O)(C(=O)CO)C[C@@H]3O[C@H]1C[C@H](N)[C@H](O)[C@H](C)O1 [free doxorubicin, doxorubicin]
toxicity estimated by body weight loss [1]: approximately equally toxic | survival time [2]: did not significantly effect survival time | survival time ([2]; listed as Free doxorubicin): did not have any significant effect on survival

Source: US20190023743A1, “METHODS AND COMPOSITIONS FOR MODULATING DRUG-POLYMER ARCHITECTURE, PHARMACOKINETICS AND BIODISTRIBUTION” (priority 2007, published 2019)
